{"source": "patent EP4582084A1", "about": "“CRYSTAL FORM OF KETOAMIDE DERIVATIVE AND PREPARATION METHOD THEREFOR” (Guangdong Raynovent Biotech Co., Ltd., priority 2022, dated 2024)", "origin": "cited, not measured here", "system": "novel coronavirus", "settings": "in vitro, preclinical trials"}
{"smiles": "Cn1cnc(Cn2c(=O)[nH]/c(=N\\c3cc4cn(C)nc4cc3Cl)n(Cc3cc(F)c(F)cc3F)c2=O)n1", "note": "[S-217622]", "values": [{"measurement": "EC50", "result": 370, "unit": "nM"}]}
